# Test results from patent US8796293B2, “Purine and deazapurine derivatives as pharmaceutical compounds” (Astex Therapeutics Limited, priority 2006, dated 2014).
# Read-outs that look alike come from different tables or passages of the source.
# Key:
# ROCK-II (h) = ROCK-II (h) (Homo sapiens (Human), UniProt O75116); assay: ROCK-II (h) assay, radiometric filter assay; type: biochemical; details: read-out: IC50 (anti-ROCK-II activity)
# Procedure: (specific activity approx. 500 cpm/pmol, concentration as required). The reaction is initiated by the addition of the MgATP mix. After incubation for 40 minutes at room temperature, the reaction is stopped by the addition of 5 μl of a 3% phosphoric acid solution. 10 μl of the reaction is then spotted onto a P30 filtermat and washed three times for 5 minutes in 75 mM phosphoric acid and once in methanol prior to drying and scintillation counting.
# The compound of various examples described above were tested for anti-ROCK-II activity (assay as described above): […]
# P70S6 kinase (T412E) = P70S6 kinase (T412E) (Homo sapiens (Human), UniProt P23443, T412E); assay: P70S6 radiometric assay; type: biochemical
# Sequence of P70S6 kinase (T412E) (P23443 whole entry T412E): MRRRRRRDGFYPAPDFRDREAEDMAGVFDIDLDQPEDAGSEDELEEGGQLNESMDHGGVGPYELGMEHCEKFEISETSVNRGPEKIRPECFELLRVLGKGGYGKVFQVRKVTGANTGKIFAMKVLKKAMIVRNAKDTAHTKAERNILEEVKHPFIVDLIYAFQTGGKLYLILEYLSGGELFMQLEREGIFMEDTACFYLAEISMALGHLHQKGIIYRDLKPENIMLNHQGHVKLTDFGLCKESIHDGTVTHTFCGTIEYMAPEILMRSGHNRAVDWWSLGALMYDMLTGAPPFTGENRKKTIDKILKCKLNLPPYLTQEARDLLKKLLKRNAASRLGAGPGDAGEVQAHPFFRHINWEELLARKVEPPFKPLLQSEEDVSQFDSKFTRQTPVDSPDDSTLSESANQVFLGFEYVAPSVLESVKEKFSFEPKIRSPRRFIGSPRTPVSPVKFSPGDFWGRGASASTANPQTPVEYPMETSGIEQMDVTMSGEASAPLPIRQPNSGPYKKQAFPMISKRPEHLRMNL
# Procedure: P70S6 enzyme is bought from Upstate and used at 2 nM in the assay. […] In the phosphoryl transfer reaction, the ^33P-γ phosphate from ATP is transferred to the serine residue. The reaction mixture is transferred to a phosphocellulose filter plate where the peptide binds and the unused ATP is washed away. After washing, scintillant is added and the incorporated activity measured by scintillation counting.
# ATP (10 mM stock) added fresh from concentrated stocks.
# Compounds—prepare a dilution curve in DMSO in a polypropylene 96 well plate to 40× final assay concentration (final DMSO 2.5%).
# In a polypropylene 96 well plate add in order: • 5 μl compound • 10 μl substrate mix • 10 μl enzyme mix
# Controls are “no compound” (DMSO only) and “no enzyme” (use 10 μl of the enzyme mix prior to adding enzyme). Cover with a plate seal (TopSeal A—Packard) or plastic lid from filter plate (moderate radiation barrier). Mix by gentle shaking. Incubate at room temperature for 50 minutes. Stop the reaction by adding 20 μl of 2% orthophosphoric acid.
# Pre-wet the wells of a Millipore MAPH NOB plate with 50 μl of 0.5% orthophosphoric acid wash buffer. Filter the liquid through on a Millipore vacuum filtration unit. Transfer the whole of the stopped reaction to the wells. Filter through. Wash twice with 200 μl of 0.5% orthophosphoric acid wash buffer. Vacuum to near dryness. Remove the plate support and allow to the filters to dry further on tissue paper. Snap the plate into an adapter for the Packard TopCount. Add 20 μl of Microscint 20 scintillant, seal with a sheet of Topseal A and count for 30s on the TopCount.
# blood pressure = details: cited from earlier work
# [1] = rat, in vivo, po, 30 mg/kg; cited from earlier work
# [2] = enzyme 2 nM, ATP approximately 15 μM, 50 minutes at room temperature, read-out: IC50 (anti-P70S6K activity)
# [3] = [γ-33P-ATP], 40 minutes at room temperature
# Sequence of ROCK-II (h) (O75116 whole entry): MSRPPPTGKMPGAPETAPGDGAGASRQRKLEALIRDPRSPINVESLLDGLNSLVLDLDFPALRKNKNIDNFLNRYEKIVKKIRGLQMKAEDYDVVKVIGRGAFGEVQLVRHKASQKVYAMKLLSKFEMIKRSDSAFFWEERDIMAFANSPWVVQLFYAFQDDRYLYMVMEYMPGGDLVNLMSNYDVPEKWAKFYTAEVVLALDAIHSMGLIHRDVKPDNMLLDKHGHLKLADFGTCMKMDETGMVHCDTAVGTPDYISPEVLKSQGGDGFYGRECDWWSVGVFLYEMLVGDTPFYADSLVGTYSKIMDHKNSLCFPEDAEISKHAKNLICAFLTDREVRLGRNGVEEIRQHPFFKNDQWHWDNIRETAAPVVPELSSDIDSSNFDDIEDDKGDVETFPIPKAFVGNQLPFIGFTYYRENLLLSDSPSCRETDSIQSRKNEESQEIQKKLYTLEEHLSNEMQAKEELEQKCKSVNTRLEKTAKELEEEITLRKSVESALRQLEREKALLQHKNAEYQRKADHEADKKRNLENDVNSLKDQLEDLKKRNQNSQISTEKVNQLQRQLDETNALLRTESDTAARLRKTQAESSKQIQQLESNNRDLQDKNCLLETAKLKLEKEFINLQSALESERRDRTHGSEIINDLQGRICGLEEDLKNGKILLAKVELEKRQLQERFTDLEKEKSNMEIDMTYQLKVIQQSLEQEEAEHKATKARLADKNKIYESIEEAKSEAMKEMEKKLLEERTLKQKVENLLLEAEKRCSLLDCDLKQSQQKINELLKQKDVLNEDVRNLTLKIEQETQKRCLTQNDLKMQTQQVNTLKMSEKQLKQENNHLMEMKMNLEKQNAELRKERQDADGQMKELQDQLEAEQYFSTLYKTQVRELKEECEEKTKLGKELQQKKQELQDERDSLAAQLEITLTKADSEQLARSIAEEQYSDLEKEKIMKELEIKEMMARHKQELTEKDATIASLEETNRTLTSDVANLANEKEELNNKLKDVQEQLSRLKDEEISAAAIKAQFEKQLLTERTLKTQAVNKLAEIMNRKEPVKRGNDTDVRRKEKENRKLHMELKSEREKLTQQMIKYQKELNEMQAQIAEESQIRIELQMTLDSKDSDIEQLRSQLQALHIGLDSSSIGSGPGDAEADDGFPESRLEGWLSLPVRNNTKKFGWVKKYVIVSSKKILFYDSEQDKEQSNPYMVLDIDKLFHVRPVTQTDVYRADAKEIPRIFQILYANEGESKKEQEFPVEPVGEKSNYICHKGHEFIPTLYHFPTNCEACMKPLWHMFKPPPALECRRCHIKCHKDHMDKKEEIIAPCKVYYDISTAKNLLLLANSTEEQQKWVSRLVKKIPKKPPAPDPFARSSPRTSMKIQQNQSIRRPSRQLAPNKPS
Compound,IC50 (P70S6 kinase (T412E); [2]),IC50 (ROCK-II (h); [3]),other results
"NC1CCN(c2ncnc3[nH]c(=O)[nH]c23)CC1 [Example 4, 6-(4-Aminopiperidin-1-yl)-7,9-dihydropurin-8-one]",3000 nM,,IC50 (ROCK-II (h)): > 1000 nM
"NC1(Cc2ccc(Cl)cc2)CCN(c2ncnc3[nH]ccc23)CC1 [Example 17, 4-(4-Chlorobenzyl)-1-(7H-pyrrolo[2,3-d]pyrimidin-4-yl)piperidin-4-ylamine]",94 nM,< 1000 nM,
"NC1(c2ccc(Cl)cc2)CCN(c2ncnc3[nH]ccc23)CC1 [Example 25, 4-(4-Chlorophenyl)-1-(7H-pyrrolo[2,3-d]pyrimidin-4-yl)piperidin-4-ylamine]",,,IC50 (P70S6 kinase (T412E)): 13 nM
NCC1(c2ccc(OC(F)(F)F)cc2)CCN(c2ncnc3[nH]ccc23)CC1 [Example 30],7 nM,,
"NC1(Cc2ccc(Cl)cc2)CCN(c2ccnc3[nH]ccc23)CC1 [Example 54, 4-(4-Chlorobenzyl)-1-(1H-pyrrolo[2,3-b]pyridin-4-yl)-piperidin-4-ylamine]",30 nM,< 10 nM,
"NC1(Cc2ccccc2Cl)CCN(c2ncnc3[nH]ccc23)CC1 [Example 55, 4-(2-Chlorobenzyl)-1-(7H-pyrrolo[2,3-d]pyrimidin-4-yl)piperidin-4-ylamine]",,> 1000 nM,
"NC1(Cc2ccc(Cl)cc2Cl)CCN(c2ncnc3[nH]ccc23)CC1 [Example 59, 4-(2,4-Dichlorobenzyl)-1-(7H-pyrrolo[2,3-d]pyrimidin-4-yl)piperidin-4-ylamine]",59 nM,,IC50 (ROCK-II (h)): < 30 nM
C[C@@H](N)[C@H]1CC[C@H](C(=O)Nc2ccncc2)CC1 [Example Y-27632],,,effect on blood pressure (blood pressure; hypertensive rats): reduces blood pressure; effect on blood pressure (blood pressure; normal rats): does not affect blood pressure; toxicity in rats [1]: not toxic
